Columns and labels:
SK-MEL-28 tumor cells = test: Cell growth inhibition assay (CellTiter-Glo), SK-MEL-28; conditions: Homo sapiens, SK-MEL-28, 72 h, read-out: Activity in SK-MEL-28 Tumor Cells;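 also: luminescent total ATP as a proxy for cell number, threefold serial dilutions at 0.2% DMSO, percent growth inhibition versus DMSO vehicle control wells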
B-Raf = B-Raf (Homo sapiens, UniProt P15056); test: B-Raf Accelerated MEK ATPase assay (BRAMA); type: biochemical; conditions: BRAMA enzyme assay; class by pIC50; read-out: B-Raf Activity
B-Raf, sequence (P15056 whole entry): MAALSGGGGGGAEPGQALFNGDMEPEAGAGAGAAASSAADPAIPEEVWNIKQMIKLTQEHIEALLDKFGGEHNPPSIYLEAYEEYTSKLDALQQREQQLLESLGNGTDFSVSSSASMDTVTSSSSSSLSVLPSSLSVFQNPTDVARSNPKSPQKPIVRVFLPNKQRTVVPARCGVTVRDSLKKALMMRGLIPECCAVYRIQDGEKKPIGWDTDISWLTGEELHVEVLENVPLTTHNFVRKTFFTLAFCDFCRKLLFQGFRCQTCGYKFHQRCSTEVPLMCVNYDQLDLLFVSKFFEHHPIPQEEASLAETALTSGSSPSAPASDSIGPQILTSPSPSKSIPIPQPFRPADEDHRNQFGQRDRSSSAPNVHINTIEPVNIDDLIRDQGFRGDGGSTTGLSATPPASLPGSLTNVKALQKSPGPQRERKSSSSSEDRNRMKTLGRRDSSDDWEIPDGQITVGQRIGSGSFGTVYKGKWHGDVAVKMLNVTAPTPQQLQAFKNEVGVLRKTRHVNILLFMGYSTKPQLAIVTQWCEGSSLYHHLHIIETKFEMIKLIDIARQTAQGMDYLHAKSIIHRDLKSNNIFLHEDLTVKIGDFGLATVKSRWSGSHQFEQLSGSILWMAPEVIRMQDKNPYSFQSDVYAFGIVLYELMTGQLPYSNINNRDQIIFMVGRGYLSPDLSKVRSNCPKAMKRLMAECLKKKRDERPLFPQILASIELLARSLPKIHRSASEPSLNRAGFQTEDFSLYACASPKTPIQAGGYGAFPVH
Protocol: Compounds of the present invention were tested for B-Raf […] inhibitory activity in a B-Raf Accelerated MEK ATPase assay (BRAMA). The BRAMA assay is a high sensitivity assay which measures an intrinsic MEK-mediated ATP hydrolysis uncoupled from downstream ERK phosphorylation by coupling the formation of ADP to NADH oxidation through the enzymes pyruvate kinase and lactate dehydrogenase. When ADP production is initiated by addition of catalytic amounts of an activated RAF enzyme and non-phosphorylated MEK, one observes robust ADP production concomitant with RAF-mediated phosphorylation of MEK. Specific details of the assay are disclosed in: C. Rominger, M. Schaber, E. May. Assay for B-Raf Activity Based on Intrinsic MEK ATPase Activity.

Colo205 tumor cells = test: Cell growth inhibition assay (CellTiter-Glo), Colo205; conditions: Homo sapiens, COLO 205, 72 h, read-out: Activity in Colo205 Tumor Cells;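 also: growth measured via total ATP luminescence (CellTiter-Glo) as a proxy for cell number, inhibition expressed against DMSO-treated control wells, 3-day exposure at 0.2% final DMSO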
Protocol: Cell Growth Inhibition Assays Human colon tumor cells (Colo205) were cultured in RPMI (Mediatech 50-020-PB) containing 10% FBS and 1% penicillin-streptomycin. […] Human melanoma cancer cells (A375-F11S) were cultured in RPMI (Mediatech 50-020-PB) containing 10% FBS, 1% sodium pyruvate, and 1% penicillin-streptomycin. Human colon cancer cells (HT-29) were cultured in high glucose DMEM (Mediatech 50-013-PB) containing 10% FBS and 1% penicillin-streptomycin. Human melanoma cancer cells (SK-MEL-3) were cultured in McCoy's 5A (50-025-PB) containing 15% FBS, and 1% penicillin-streptomycin. All cell lines were maintained at 37° C. in a humidified 5% CO2, 95% air incubator.
The next day, compounds were diluted as follows: For 96-well assays, 13.5 μl of compound in DMSO were diluted using nine (9) serial 1:3 dilutions of 4.5 μl in 9 μl of DMSO. Medium (270 μl/well of RPMI with 10% FBS and 1% penicillin-streptomycin) was added to the plates. Aliquots (7 μl) were added to cells in the final assay giving a final DMSO concentration of 0.2%. For 384-well assays, 15 μl of compound in DMSO were diluted using nine (9) serial 1:3 dilutions of 5 μl in 10 μl of DMSO, followed by a further dilution of 5 μl of compound with 95 μl of medium, of which 2 μl are added to cells in the final assay giving a final DMSO concentration of 0.2%. Cells were incubated at 37° C., 5% CO2 for 3 days.
Total ATP was measured (as a surrogate estimate of cell number) using CellTiter-Glo® (Promega G7571) reagent. Briefly, plates were removed from the incubator and allowed to equilibrate to room temperature for 30 minutes. CellTiter-Glo® (25 μl or 55 μl for 384-well or 96-well assays, respectively) reagent was added to each well and plates were shaken on an orbital plate shaker for 2 minutes. Plates were incubated without shaking for a further 30 minutes and read on an LJL Analyst GT reader in luminometer mode with an integration time of 0.5 seconds per well. Percent inhibition of cell growth was calculated relative to DMSO vehicle-treated control wells.

SMILES | IC50 (SK-MEL-28 tumor cells) | IC50 (B-Raf) | IC50 (Colo205 tumor cells)
CCNc1nc(-c2cc(C)cc(OC)c2)c(-c2ccnc(Nc3ccc(N4CCN(C(C)=O)CC4)nc3)n2)o1 [Example 100] | < 500 nM | < 100 nM | < 500 nM
CCNc1nc(-c2cc(O)ccn2)c(-c2ccnc(Nc3ccc(OCCN4CCCC4)c(Cl)c3)n2)s1 [Example 97] | > 5000 nM | 100 to 1000 nM | > 5000 nM
COc1cc(OC)cc(-c2nc(C)oc2-c2ccnc(Nc3ccc(N4CCN(C)CC4)c(F)c3)n2)c1 [Example 84] | 500 to 5000 nM | < 100 nM | 500 to 5000 nM
CCNc1nc(-c2cccc(OC)c2F)c(-c2ccnc(Nc3ccc(OC4CCN(CCS(C)(=O)=O)CC4)c(F)c3)n2)s1 [Example 48, 4-{2-(Ethylamino)-4-[2-fluoro-3-(methyloxy)phenyl]-1,3-thiazol-5-yl}-N-[3-fluoro-4-({1-[2-(methylsulfonyl)ethyl]-4-piperidinyl}oxy)phenyl]-2-pyrimidinamine] | < 500 nM | < 100 nM | < 500 nM
CCNc1nc(-c2cc(C)cc(OC)c2)c(-c2ccnc(Nc3ccc(N4CCOCC4)c(F)c3)n2)o1 [Example 101] | 500 to 5000 nM | < 100 nM | < 500 nM
CCNc1nc(-c2ccnc(OC)c2)c(-c2ccnc(Nc3ccc(OCCN4CCCC4)c(Cl)c3)n2)s1 [Example 58, N-(3-Chloro-4-{[2-(1-pyrrolidinyl)ethyl]oxy}phenyl)-4-{2-(ethylamino)-4-[2-(methyloxy)-4-pyridinyl]-1,3-thiazol-5-yl}-2-pyrimidinamine] | < 500 nM | < 100 nM | < 500 nM
COc1cccc(-c2nc(CF)sc2-c2ccnc(Nc3ccc(OCCN4CCCC4)c(F)c3)n2)c1 [Example 73, 4-{2-(Fluoromethyl)-4-[3-(methyloxy)phenyl]-1,3-thiazol-5-yl}-N-(3-fluoro-4-{[2-(1-pyrrolidinyl)ethyl]oxy}phenyl)-2-pyrimidinamine] | 500 to 5000 nM | < 100 nM | 500 to 5000 nM
CCNc1nc(-c2cc(C)cc(OCC)c2)c(-c2ccnc(Nc3ccc(N4CCN(C)CC4)c(F)c3)n2)s1 [Example 39, 4-{2-(Ethylamino)-4-[3-(ethyloxy)-5-methylphenyl]-1,3-thiazol-5-yl}-N-[3-fluoro-4-(4-methyl-1-piperazinyl)phenyl]-2-pyrimidinamine] | – | < 100 nM | –
CCc1nc(-c2cc(C)cc(OC)c2)c(-c2ccnc(Nc3ccc(N4CCN5CCOC[C@H]5C4)nc3)n2)s1 [Example 80] | > 5000 nM | < 100 nM | > 5000 nM
COc1cccc(-c2nc(C(C)C)sc2-c2ccnc(Nc3ccc(NCCN4CCCC4)cc3)n2)c1 [Example 76, N-(4-{2-(1-Methylethyl)-4-[3-(methyloxy)phenyl]-1,3-thiazol-5-yl}-2-pyrimidinyl)-N′-[2-(1-pyrrolidinyl)ethyl]-1,4-benzenediamine] | 500 to 5000 nM | < 100 nM | 500 to 5000 nM
CCNc1nc(-c2ccnc(OC)c2)c(-c2ccnc(Nc3ccc(N4CCN(C)CC4)c(F)c3)n2)s1 [Example 111] | > 5000 nM | < 100 nM | 500 to 5000 nM
COc1cc(OC)cc(-c2nc(N(C)C)sc2-c2ccnc(Nc3ccc(OC4CCN(CCS(C)(=O)=O)CC4)c(F)c3)n2)c1 [Example 24, 4-[4-[3,5-bis(methyloxy)phenyl]-2-(dimethylamino)-1,3-thiazol-5-yl]-N-[3-fluoro-4-({1-[2-(methylsulfonyl)ethyl]-4-piperidinyl}oxy)phenyl]-2-pyrimidinamine] | 500 to 5000 nM | < 100 nM | < 500 nM
CCNc1nc(-c2ccnc(O)c2)c(-c2ccnc(Nc3ccc(N4CCS(=O)(=O)CC4)nc3)n2)s1 [Example 79] | > 5000 nM | < 100 nM | > 5000 nM
CCNc1nc(-c2cc(OC)cc(OC)c2)c(-c2ccnc(Nc3ccc(CCN4CCOCC4)cc3)n2)o1 [Example 123] | > 5000 nM | < 100 nM | 500 to 5000 nM
CCNc1nc(-c2ccnc(O)c2)c(-c2ccnc(Nc3ccc(NCCN4CCCC4)c(Cl)c3)n2)s1 [Example 110] | 500 to 5000 nM | < 100 nM | 500 to 5000 nM
CCc1nc(-c2cc(OC)cc(OC)c2)c(-c2ccnc(Nc3ccc(N4CCN(C)CC4)c(F)c3)n2)o1 [Example 85] | 500 to 5000 nM | < 100 nM | 500 to 5000 nM
CCc1nc(-c2ccc3cc[nH]c3c2)c(-c2ccnc(Nc3ccc(OC4CCN(CCS(C)(=O)=O)CC4)c(F)c3)n2)s1 [Example 68, 4-[2-Ethyl-4-(1H-indol-6-yl)-1,3-thiazol-5-yl]-N-[3-fluoro-4-({1-[2-(methylsulfonyl)ethyl]-4-piperidinyl}oxy)phenyl]-2-pyrimidinamine] | 500 to 5000 nM | < 100 nM | 500 to 5000 nM
CCNc1nc(-c2cc(C)cc(OC)c2)c(-c2ccnc(Nc3ccc(N4CCN5CCCCC5C4)c(F)c3)n2)o1 (stereo not shown) [Example 132] | 500 to 5000 nM | < 100 nM | 500 to 5000 nM

More lines, now with the values ahead:

IC50 (SK-MEL-28 tumor cells) | IC50 (B-Raf) | IC50 (Colo205 tumor cells) | SMILES
500 to 5000 nM | < 100 nM | 500 to 5000 nM | CCNc1nc(-c2cc(OC)cc(OC)c2)c(-c2ccnc(Nc3ccc(N4CCN5CCCCC5C4)c(F)c3)n2)o1 (stereo not shown) [Example 134]
< 500 nM | < 100 nM | < 500 nM | CCNc1nc(-c2cc(C)cc(OC)c2)c(-c2ccnc(Nc3ccc(N4CCN5CCOC[C@H]5C4)nc3)n2)s1 [Example 71, 4-{2-(Ethylamino)-4-[3-methyl-5-(methyloxy)phenyl]-1,3-thiazol-5-yl}-N-{6-[(9aR)-hexahydropyrazino[2,1-c][1,4]oxazin-8(1H)-yl]-3-pyridinyl}-2-pyrimidinamine]
500 to 5000 nM | < 100 nM | < 500 nM | CCNc1nc(-c2ccc(C)c(OC)c2)c(-c2ccnc(Nc3ccc(OCCN4CCCC4)c(C#N)c3)n2)s1 [Example 50, 5-[(4-{2-(Ethylamino)-4-[4-methyl-3-(methyloxy)phenyl]-1,3-thiazol-5-yl}-2-pyrimidinyl)amino]-2-{[2-(1-pyrrolidinyl)ethyl]oxy}benzonitrile]
500 to 5000 nM | < 100 nM | 500 to 5000 nM | COc1cc(OC)cc(-c2nc(N)oc2-c2ccnc(Nc3ccc(N4CCN(C)CC4)c(F)c3)n2)c1 [Example 86]
500 to 5000 nM | < 100 nM | 500 to 5000 nM | CCNc1nc(-c2cc(C)cc(OC)c2)c(-c2ccnc(Nc3ccc(N4CCN(CCOC)CC4)c(C(=O)O)c3)n2)o1 [Example 130]
500 to 5000 nM | < 100 nM | 500 to 5000 nM | CCNc1nc(-c2cc(OC)cc(OC)c2)c(-c2ccnc(Nc3ccc4c(c3)N(C(C)=O)CC4)n2)o1 [Example 122]
500 to 5000 nM | < 100 nM | < 500 nM | CCNc1nc(-c2cccc(OC)c2)c(-c2ccnc(Nc3ccc(CCN4CCN(S(C)(=O)=O)CC4)nc3)n2)s1 [Example 40, 4-{2-(Ethylamino)-4-[3-(methyloxy)phenyl]-1,3-thiazol-5-yl}-N-(6-{2-[4-(methylsulfonyl)-1-piperazinyl]ethyl}-3-pyridinyl)-2-pyrimidinamine]
500 to 5000 nM | < 100 nM | 500 to 5000 nM | CCNc1nc(-c2cc(C)cc(OC)c2)c(-c2ccnc(Nc3ccc(N4CCN5CCCCC5C4)c(F)c3)n2)s1 (stereo not shown) [Example 114]
500 to 5000 nM | < 100 nM | < 500 nM | CCNc1nc(-c2cc(OC)cc(OC)c2)c(-c2ccnc(Nc3ccc(N4CCN(C)CC4)c(Cl)c3)n2)o1 [Example 69, 4-[4-[3,5-Bis(methyloxy)phenyl]-2-(ethylamino)-1,3-oxazol-5-yl]-N-[3-chloro-4-(4-methyl-1-piperazinyl)phenyl]-2-pyrimidinamine]
500 to 5000 nM | < 100 nM | 500 to 5000 nM | CCNc1nc(-c2cc(C)cc(OC)c2)c(-c2ccnc(Nc3ccc(OC4CCN(CCF)CC4)c(C)c3)n2)o1 [Example 126]
< 500 nM | < 100 nM | < 500 nM | CCNc1nc(-c2cc(C)cc(OC)c2)c(-c2ccnc(Nc3ccc(N4CCOCC4)c(C(=O)O)c3)n2)s1 [Example 26, 5-[(4-{2-(Ethylamino)-4-[3-methyl-5-(methyloxy)phenyl]-1,3-thiazol-5-yl}-2-pyrimidinyl)amino]-2-(4-morpholinyl)benzoic acid]
500 to 5000 nM | < 100 nM | 500 to 5000 nM | Nc1cccc(-c2nc(N3CCCC3)sc2-c2ccnc(Nc3ccc(NCCN4CCCC4)c(F)c3)n2)c1 [Example 109]
> 5000 nM | 100 to 1000 nM | 500 to 5000 nM | COc1cc(OC)cc(-c2nc(C)oc2-c2ccnc(Nc3ccc(OC4CCN(CCS(C)(=O)=O)CC4)c(F)c3)n2)c1 [Example 83]
500 to 5000 nM | < 100 nM | 500 to 5000 nM | COc1cc(OC)cc(-c2nc(N)oc2-c2ccnc(Nc3ccc(OC4CCN(CCS(C)(=O)=O)CC4)c(F)c3)n2)c1 [Example 75, 4-{2-Amino-4-[3,5-bis(methyloxy)phenyl]-1,3-oxazol-5-yl}-N-[3-fluoro-4-({1-[2-(methylsulfonyl)ethyl]-4-piperidinyl}oxy)phenyl]-2-pyrimidinamine]
500 to 5000 nM | < 100 nM | 500 to 5000 nM | CCNc1nc(-c2cc(OC)cc(OC)c2)c(-c2ccnc(Nc3cc(F)c(OC4CCN(CCF)CC4)c(F)c3)n2)o1 [Example 93]
500 to 5000 nM | < 100 nM | 500 to 5000 nM | CCNc1nc(-c2cc(OC)cc(OC)c2)c(-c2ccnc(Nc3ccc(OC4CCN(CCF)CC4)c(C)c3)n2)o1 [Example 88]

Source: patent US20110190280A1, “Thiazole And Oxazole Kinase Inhibitors” (priority 2007, published 2011)
